Assay results: PMC12040169 (PLOS Biology, 2025)

Experiment: in vitro
Conditions: human, hela cells, % viability

Compound | viability at 28.5 h, 10 µM
COc1ccc2sc(N(Cc3cccnc3)C(=O)C3COc4ccccc4O3)nc2c1 (stereo not shown) [CBK294424] | 107%
CC(=O)c1cccc(NC(=O)c2cccn(Cc3ccc(C)cc3)c2=O)c1 [CBK294427] | 114%
COc1ccc(CNC(=O)c2sc3ncnc(N(C)C4CCCCC4)c3c2C)cc1 [CBK294431] | 78.9%
CSc1ccc(CNC(=O)c2sc3nc(C)nc(N4CCCC4)c3c2C)cc1 [CBK294432] | 96.8%
CCc1nc(-c2ccc(C)c(S(=O)(=O)N3CCN(c4ccccc4)CC3)c2)no1 [CBK294434] | 98.3%
CCc1cccc(-n2nc(C)c3c2NC(=O)CC3C(=O)c2ccc(CC)s2)c1 (stereo not shown) [CBK294435] | 113%
Cc1nn(-c2ccccc2)c2c1C(C(=O)c1ccc3c(c1)OCO3)CC(=O)N2 (stereo not shown) [CBK294436] | 86.1%
O=C1CC(C(=O)Nc2ccc(Cl)cc2)c2c(nc(SCc3ccccc3F)[nH]c2=O)N1 (stereo not shown) [CBK294437] | 93.6%
O=C1CC(c2cc(Br)ccc2F)c2scc(-c3ccccc3F)c2N1 (stereo not shown) [CBK294440] | 86.4%
NC(=O)COc1ccc(C2CC(=O)Nc3c(-c4cccc(F)c4)csc32)cc1 (stereo not shown) [CBK294441] | 99.6%
CC(=O)Nc1ccc(N2C(=O)CSC2c2ccccc2[N+](=O)[O-])cc1 (stereo not shown) [CBK294443] | 110%
CCCn1c(=S)[nH]c2cc(C(=O)NCCc3ccc(Cl)cc3)ccc2c1=O [CBK294445] | 88.6%
CCOC(=O)N1CCC(NC(=O)c2ccc3nc4ccccc4c(=O)n3c2)CC1 [CBK294447] | 81.1%
COc1ccc(CCNc2ncnc3c2cnn3-c2ccc(C)cc2C)cc1OC [CBK294448] | 88.2%
O=C(NCCN1CCOCC1)c1cc(-c2ccc(F)cc2)nc2ccc(Br)cc12 [CBK294450] | 89.9%
O=C(NCc1ccc(Cl)cc1)c1cc(-c2ccc(F)cc2)nc2ccccc12 [CBK294451] | 111%
O=C(c1ccc(SCc2cccnc2)c([N+](=O)[O-])c1)N1CCCCC1 [CBK294452] | 98.8%
Cc1cccc(-n2cnc3cc(C(=O)NCc4cccnc4)ccc32)c1 [CBK294455] | 77.5%
CCOc1ccc(NC(=O)Cn2c3c(c(-c4ccccc4)cc2=O)CCCC3)cc1 [CBK294457] | 85.8%
COc1ccc(-c2cc(C(=O)NC3CCCCC3C)c3ccccc3n2)cc1 (stereo not shown) [CBK294459] | 107%
Cc1nc2nc(SCc3cc(=O)n4ccccc4n3)nn2c(C)c1Cc1ccccc1 [CBK294460] | 89.9%
O=C1N(CN2CCN(c3cccc(C(F)(F)F)c3)CC2)c2ccccc2C12OCCCO2 [CBK294461] | 99%

Compound | viability at 28.5 h, 10 µM
CC(C)N(C)C1CCN(S(=O)(=O)c2cccc([N+](=O)[O-])c2)CC1 [CBK294462] | 88.7%
CCN(CCCNC(=O)c1cc(-c2cccnc2)nc2ccccc12)c1cccc(C)c1 [CBK294465] | 86.7%
CC(=O)Nc1cc(C(=O)NCc2ccc(F)cc2)ccc1Sc1ccc(Cl)cc1 [CBK294468] | 96.2%
O=C(CCN1C(=O)COc2ccccc21)NCCCN1CCN(c2ccccc2F)CC1 [CBK294469] | 102%
CCC(C)NC(=O)C1CCC(=O)N1Cc1ccc(C)cc1 (stereo not shown) [CBK294470] | 90%
COCCN(C(=S)Nc1ccc(OC)cc1)C(C)c1cccnc1 (stereo not shown) [CBK294471] | 83.7%
COCCN(C(=S)Nc1ccc(C)cc1Cl)C(C)c1cccnc1 (stereo not shown) [CBK294472] | 91.1%
CCOc1ccc(CNc2sc3c(c2C(=O)Nc2ccc(OC)cc2)CCC3)cc1 [CBK294473] | 80.6%
COc1ccc(C2CC(c3cccc(Br)c3)Nc3ncnn32)cc1OC (stereo not shown) [CBK294474] | 82.7%
COc1ccc(-c2nnc(SCC(=O)Nc3cc(C(C)(C)C)no3)n2C2CCCCC2)cc1OC [CBK295131] | 105%
CCCn1c(SCC(=O)N(C)Cc2ccc(OCC)cc2)n[nH]c1=O [CBK295132] | 90%
CCCCCC(=O)Nc1ccc(C(=O)CSc2nnc(-c3ccco3)o2)cc1 [CBK295134] | 84%
O=C(CSc1nnc(-c2ccco2)o1)N1CCN(CC(=O)N2CCCC2)CC1 [CBK295136] | 111%
COc1ccc(NC(=O)c2ccc(-c3nnn[nH]3)cc2)cc1OC [CBK295138] | 97.7%
COc1ccc(NC(=O)c2ccc(-c3nnn[nH]3)cc2)cc1Cl [CBK295139] | 114%
CCCn1c(SCc2csc(COc3ccc(Cl)cc3)n2)n[nH]c1=O [CBK295140] | 82.3%
O=C(CNC(=O)c1ccco1)Nc1cccc(-c2nc3ccccc3s2)c1 [CBK295142] | 85.4%
CC(=O)Nc1cc(C(=O)CSc2nnnn2-c2ccc(C)c(C)c2)ccc1O [CBK295143] | 90.9%
CCOc1ccccc1OCCCOc1ccc(C(=O)O)cc1 [CBK295144] | 110%
O=C(c1cnn(C(=O)c2ccc3c(=O)n4c(nc3c2)CCC4)c1)c1ccccc1O [CBK295145] | 95.7%
CC(NC(=O)Cc1ccc(-c2ccccc2)cc1)c1cccnc1 (stereo not shown) [CBK295147] | 95%
CCOC(=O)c1sc(NC(=O)CCNC(=O)c2ccccc2C(=O)O)c(C#N)c1C [CBK295152] | 96.1%

Compound | viability at 28.5 h, 10 µM
CCc1cccc2c(C=C3C(=O)N(CC(=O)O)C(=O)c4ccccc43)c[nH]c12 [CBK295153] | 81.5%
Cc1ccc2[nH]c(-c3ccccc3NC(=O)CCCC(=O)O)nc2c1 [CBK295154] | 86%
O=C(O)Cc1csc(SCc2cc(F)cc3c2OC(c2ccccc2)OC3)n1 (stereo not shown) [CBK295158] | 107%
NC(=O)C1CN(C(=O)CN2CCCc3ccccc32)c2ccccc2O1 (stereo not shown) [CBK295163] | 93.4%
O=C(CCc1cccnc1)Nc1ccc(Oc2ccccc2)cc1 [CBK295168] | 99.8%
Cc1cc(C(=O)Nc2ccc(S(=O)(=O)N3CC(C)OC(C)C3)cc2)c2ccccc2n1 (stereo not shown) [CBK295170] | 87.4%
O=C(O)CCC(NC(=O)c1ccc(-c2ccc(Cl)cc2)s1)C(=O)O (stereo not shown) [CBK295171] | 92.9%
O=C(O)CCC(NC(=O)c1ccc(-c2ccc(F)cc2)s1)C(=O)O (stereo not shown) [CBK295172] | 102%
CC(C)Cn1c(SCC(=O)N2CCNC2=O)nnc1-c1ccco1 [CBK295175] | 106%
O=C(Nc1ccc(Cl)c(S(=O)(=O)N2CCCC2)c1)c1cnccn1 [CBK295176] | 87.9%
Cc1cc(C(=O)CSc2nnc(C(C)C)n2Cc2ccco2)c(C)n1C [CBK295178] | 81.9%
Nc1nnc(SCC(=O)N(Cc2ccccc2F)C2CC2)s1 [CBK295179] | 84.3%
Cc1nn(Cc2ccc(F)cc2)c2sc(C(=O)NCc3ccc(S(N)(=O)=O)cc3)cc12 [CBK295181] | 87%
COc1ccc(C2(C)NC(=O)N(CC(=O)Nc3ccc(NC(C)=O)cc3)C2=O)cc1 (stereo not shown) [CBK295182] | 106%
Cc1ccc(CNC(=O)C2CC(=O)N(c3cccc(C)c3C)C2)cc1 (stereo not shown) [CBK295183] | 97.5%
CN(CC(=O)NCc1ccc2c(c1)OCO2)Cc1ccc(Br)s1 [CBK295185] | 80.4%
CCN(CC)C(=O)c1ccc(NC(=O)CSc2n[nH]c(=O)n2CC2CCCO2)cc1 (stereo not shown) [CBK295186] | 77.6%
O=C(C1CN(Cc2nc3ccsc3c(=O)[nH]2)c2ccccc2O1)N1CCOCC1 (stereo not shown) [CBK295189] | 109%
COCCN(Cc1nnc(-c2cccs2)o1)C(C(=O)N1CCOCC1)c1ccccc1 (stereo not shown) [CBK295190] | 104%
O=c1c2c3c(sc2ncn1CC(O)COc1ccc(F)cc1)CCC3 (stereo not shown) [CBK295191] | 102%
COc1ccc(C(=O)C2CCN(Cc3cccc4cccnc34)CC2)cc1 [CBK295192] | 85.3%
Cc1nc(-c2ccccc2)ccc1C(=O)Nc1nc(CC(N)=O)cs1 [CBK295195] | 96.8%

Compound | viability at 28.5 h, 10 µM
CCn1c(=O)n(CCC(=O)NC(C(N)=O)c2ccccc2)c2ccccc21 (stereo not shown) [CBK295196] | 89.7%
CCc1ccccc1Nc1nnc(SC(C)C(=O)N2CCCC2)s1 (stereo not shown) [CBK295197] | 106%
COc1ccc(C(=O)NCC(=O)Nc2ccc(N3CCCCC3)cc2)cc1OC [CBK295199] | 94.3%
COCCn1c(SC)nc2sc(-c3ccccc3)cc2c1=O [CBK295200] | 89.8%
Cc1nc(SCC(N)=O)nc(C)c1CCC(=O)NCc1ccc(F)cc1 [CBK295201] | 88.5%
CCc1ccc(C(=O)Nc2ccc(NC(C)=O)cc2C(F)(F)F)cc1 [CBK295202] | 84.1%
Cc1nc2c3ccccc3nc(SCC(=O)Nc3ccccc3)n2n1 [CBK295205] | 78.5%
CCN(C(=O)C(C)N(C)Cc1c(C)nn(C2CCS(=O)(=O)C2)c1C)c1cccc2ccccc12 (stereo not shown) [CBK295206] | 108%
O=C(c1ccc2ncsc2c1)N1CCN(S(=O)(=O)c2ccc(C(F)(F)F)cc2)CC1 [CBK295285] | 98.2%
O=C(O)c1sccc1S(=O)(=O)Nc1ccc(Cc2nc3ccccc3s2)cc1 [CBK295286] | 92.8%
Cc1cccc(Oc2ccccc2NS(=O)(=O)c2ccc3c(c2)N(CC(=O)O)C(=O)CO3)c1 [CBK295287] | 92.1%
COc1ccc2cc(COC(=O)c3cnc(C)cn3)c(Cl)nc2c1 [CBK295288] | 106%
CCOc1ncccc1C(=O)OCc1cc2ccc(OC)cc2nc1Cl [CBK295289] | 78.1%
C=CCn1c(Cc2csc(NC(=O)c3ccc([N+](=O)[O-])cc3)n2)n[nH]c1=S [CBK295290] | 96.2%
C=CCn1c(Cc2csc(NC(=O)c3ccc([N+](=O)[O-])cc3Cl)n2)n[nH]c1=S [CBK295291] | 76.1%
C=CCn1c(Cc2csc(NC(=O)c3ccc(C)cc3)n2)n[nH]c1=S [CBK295292] | 96.4%
CC(=O)N1CCN(C(=O)c2nn(-c3ccc(F)cc3)c3c2CCCCC3)CC1 [CBK295293] | 107%
CCNS(=O)(=O)c1ccc(NS(=O)(=O)c2cc(C(=O)O)ccc2C)cc1 [CBK295296] | 82.8%
CSc1ccc2cc(CSc3nnc(-c4cccs4)n3CC(=O)O)c(Cl)nc2c1 [CBK295298] | 91.3%
